From patent US20170051149A1, “AZOARYLS AS REVERSIBLY MODULATABLE TUBULIN INHIBITORS” (ECOLE NORMALE SUPERIEURE DE LYON, priority 2014, published 2017)

System: tubulin
Assay: turbidimetric tubulin polymerisation assay with irradiation
Type: biochemical
Details: for tubulin polymerisation inhibition: 50 and 25 μM
Description: Turbidimetric tubulin polymerisation assays were performed as described in the literature^[29], following the increase in absorbance at 340 nm, but with the addition of irradiation supplied by the monochromator setup described in Part B. Two wavelengths were chosen for each compound, λE->Z (chosen to effect bulk trans->cis isomerisation, typically 390 nm), and λZ->E (chosen to effect bulk cis->trans isomerisation, typically 505 nm). The raw absorbance A(t) could be more clearly discussed by first correcting for any change in azoaryl absorbance over time by subtracting the absorbance of a control run performed without tubulin, yielding the corrected absorbance A*(t), and then taking its derivative R=dA*(t)/dt. Experiments were performed under six sets of conditions to illustrate the light control of tubulin polymerisation inhibition effected by the compounds of the invention: (a) in the dark (typical result: large R at the start decreasing rapidly over time), or (b) with constant irradiation at λE->Z (typical result: small R throughout the experiment), or (c) with constant irradiation at λZ->E (typical result: moderate R at the start decreasing slowly over time), or (d) with irradiation at λE->Z for an initial period then darkness (typical result: initial period with small R, then R increases after a while), or (e) with irradiation at λE->Z for a given period (typically 30 min) then irradiation at λZ->E (typical result: 30 minutes with small R, then R increases quickly to a moderate value which decreases slowly over time), or (f) with irradiation at λE->Z for a given period (usually 30 min) then a short irradiation at λZ->E (usually 30 seconds) then darkness (typical result: 30 minutes with small R, then R increases quickly to a moderate-to-large value which decreases slowly over time); the last three conditions required correction of A(t) to A*(t) to reveal the changes in absorption which were due only to tubulin polymerisation. It would be costly to determine light-dependent in vitro tubulin polymerisation IC50 values for each compound, eg. under protocols (a) and (b) (and/or (c)). This was not performed here since it was considered that such parameters have little predictive value in their intended complex biological settings, especially in light of the importance of biodistribution, tubulin-binding kinetics and lability (rather than thermodynamic binding strength) for tubulin disruption in biological settings.
Table 3 below illustrates typical results from experiments of type (a) (“DARK”) and (b) (“390 nm”) as described above, with compound (I.1) at concentrations well above the IC50 for the toxic regime, compared to a PBS-only control CTRL (no I.1 present).

COc1ccc(N=Nc2cc(OC)c(OC)c(OC)c2)cc1O [I.1, 2-methoxy-5-((3,4,5-trimethoxyphenyl)diazenyl)phenol]
A(λ = 340 nm) (25 μM, 390 nm, 0.0 min): 0.0000
A(λ = 340 nm) (25 μM, 390 nm, 0.5 min): −0.0026
A(λ = 340 nm) (25 μM, 390 nm, 1.0 min): −0.0022
A(λ = 340 nm) (25 μM, 390 nm, 1.5 min): −0.0022
A(λ = 340 nm) (25 μM, 390 nm, 2.0 min): −0.0010
A(λ = 340 nm) (25 μM, 390 nm, 3.0 min): 0.0004
A(λ = 340 nm) (25 μM, 390 nm, 3.5 min): 0.0029
A(λ = 340 nm) (25 μM, 390 nm, 4.0 min): 0.0027
A(λ = 340 nm) (25 μM, 390 nm, 4.5 min): 0.0034
A(λ = 340 nm) (25 μM, 390 nm, 5.0 min): 0.0100
A(λ = 340 nm) (25 μM, 390 nm, 5.5 min): 0.0094
A(λ = 340 nm) (25 μM, 390 nm, 6.0 min): 0.0132
A(λ = 340 nm) (25 μM, 390 nm, 6.5 min): 0.0174
A(λ = 340 nm) (25 μM, 390 nm, 7.0 min): 0.0171
A(λ = 340 nm) (25 μM, 390 nm, 7.5 min): 0.0222
A(λ = 340 nm) (25 μM, 390 nm, 8.0 min): 0.0241
A(λ = 340 nm) (25 μM, 390 nm, 8.5 min): 0.0259
A(λ = 340 nm) (25 μM, 390 nm, 9.0 min): 0.0288
A(λ = 340 nm) (25 μM, 390 nm, 9.5 min): 0.0313
A(λ = 340 nm) (25 μM, 390 nm, 10.0 min): 0.0341
A(λ = 340 nm) (25 μM, 390 nm, 10.5 min): 0.0358
A(λ = 340 nm) (25 μM, 390 nm, 11.0 min): 0.0402
A(λ = 340 nm) (25 μM, 390 nm, 11.5 min): 0.0413
A(λ = 340 nm) (25 μM, 390 nm, 12.0 min): 0.0443
A(λ = 340 nm) (25 μM, 390 nm, […]): −0.0001
A(λ = 340 nm) (25 μM, DARK, 0.0 min): 0.0000
A(λ = 340 nm) (25 μM, DARK, 0.5 min): 0.0001
A(λ = 340 nm) (25 μM, DARK, 1.0 min): −0.0016
A(λ = 340 nm) (25 μM, DARK, 1.5 min): 0.0018
A(λ = 340 nm) (25 μM, DARK, 2.0 min): 0.0119
A(λ = 340 nm) (25 μM, DARK, 3.0 min): 0.0492
A(λ = 340 nm) (25 μM, DARK, 3.5 min): 0.0689
A(λ = 340 nm) (25 μM, DARK, 4.0 min): 0.0851
A(λ = 340 nm) (25 μM, DARK, 4.5 min): 0.0984
A(λ = 340 nm) (25 μM, DARK, 5.0 min): 0.1073
A(λ = 340 nm) (25 μM, DARK, 5.5 min): 0.1133
A(λ = 340 nm) (25 μM, DARK, 6.0 min): 0.1150
A(λ = 340 nm) (25 μM, DARK, 6.5 min): 0.1212
A(λ = 340 nm) (25 μM, DARK, 7.0 min): 0.1249
A(λ = 340 nm) (25 μM, DARK, 7.5 min): 0.1228
A(λ = 340 nm) (25 μM, DARK, 8.0 min): 0.1250
A(λ = 340 nm) (25 μM, DARK, 8.5 min): 0.1259
A(λ = 340 nm) (25 μM, DARK, 9.0 min): 0.1240
A(λ = 340 nm) (25 μM, DARK, 9.5 min): 0.1276
A(λ = 340 nm) (25 μM, DARK, 10.0 min): 0.1276
A(λ = 340 nm) (25 μM, DARK, 10.5 min): 0.1255
A(λ = 340 nm) (25 μM, DARK, 11.0 min): 0.1290
A(λ = 340 nm) (25 μM, DARK, 11.5 min): 0.1299
A(λ = 340 nm) (25 μM, DARK, 12.0 min): 0.1333
A(λ = 340 nm) (25 μM, DARK, […]): 0.0274
A(λ = 340 nm) (50 μM, 390 nm, 0.0 min): 0.0000
A(λ = 340 nm) (50 μM, 390 nm, 0.5 min): 0.0014
A(λ = 340 nm) (50 μM, 390 nm, 1.0 min): 0.0020
A(λ = 340 nm) (50 μM, 390 nm, 1.5 min): 0.0033
A(λ = 340 nm) (50 μM, 390 nm, 2.0 min): 0.0027
A(λ = 340 nm) (50 μM, 390 nm, 3.0 min): 0.0066
A(λ = 340 nm) (50 μM, 390 nm, 3.5 min): 0.0074
A(λ = 340 nm) (50 μM, 390 nm, 4.0 min): 0.0100
A(λ = 340 nm) (50 μM, 390 nm, 4.5 min): 0.0084
A(λ = 340 nm) (50 μM, 390 nm, 5.0 min): 0.0122
A(λ = 340 nm) (50 μM, 390 nm, 5.5 min): 0.0166
A(λ = 340 nm) (50 μM, 390 nm, 6.0 min): 0.0163
A(λ = 340 nm) (50 μM, 390 nm, 6.5 min): 0.0172
A(λ = 340 nm) (50 μM, 390 nm, 7.0 min): 0.0213
A(λ = 340 nm) (50 μM, 390 nm, 7.5 min): 0.0209
A(λ = 340 nm) (50 μM, 390 nm, 8.0 min): 0.0221
A(λ = 340 nm) (50 μM, 390 nm, 8.5 min): 0.0268
A(λ = 340 nm) (50 μM, 390 nm, 9.0 min): 0.0268
A(λ = 340 nm) (50 μM, 390 nm, 9.5 min): 0.0293
A(λ = 340 nm) (50 μM, 390 nm, 10.0 min): 0.0320
A(λ = 340 nm) (50 μM, 390 nm, 10.5 min): 0.0318
A(λ = 340 nm) (50 μM, 390 nm, 11.0 min): 0.0327
A(λ = 340 nm) (50 μM, 390 nm, 11.5 min): 0.0333
A(λ = 340 nm) (50 μM, 390 nm, 12.0 min): 0.0359
A(λ = 340 nm) (50 μM, 390 nm, […]): 0.0052
A(λ = 340 nm) (50 μM, DARK, 0.0 min): 0.0000
A(λ = 340 nm) (50 μM, DARK, 0.5 min): 0.0010
A(λ = 340 nm) (50 μM, DARK, 1.0 min): 0.0014
A(λ = 340 nm) (50 μM, DARK, 1.5 min): 0.0034
A(λ = 340 nm) (50 μM, DARK, 2.0 min): 0.0128
A(λ = 340 nm) (50 μM, DARK, 3.0 min): 0.0552
A(λ = 340 nm) (50 μM, DARK, 3.5 min): 0.0734
A(λ = 340 nm) (50 μM, DARK, 4.0 min): 0.0926
A(λ = 340 nm) (50 μM, DARK, 4.5 min): 0.1046
A(λ = 340 nm) (50 μM, DARK, 5.0 min): 0.1139
A(λ = 340 nm) (50 μM, DARK, 5.5 min): 0.1209
A(λ = 340 nm) (50 μM, DARK, 6.0 min): 0.1269
A(λ = 340 nm) (50 μM, DARK, 6.5 min): 0.1284
A(λ = 340 nm) (50 μM, DARK, 7.0 min): 0.1262
A(λ = 340 nm) (50 μM, DARK, 7.5 min): 0.1379
A(λ = 340 nm) (50 μM, DARK, 8.0 min): 0.1338
A(λ = 340 nm) (50 μM, DARK, 8.5 min): 0.1359
A(λ = 340 nm) (50 μM, DARK, 9.0 min): 0.1367
A(λ = 340 nm) (50 μM, DARK, 9.5 min): 0.1374
A(λ = 340 nm) (50 μM, DARK, 10.0 min): 0.1397
A(λ = 340 nm) (50 μM, DARK, 10.5 min): 0.1370
A(λ = 340 nm) (50 μM, DARK, 11.0 min): 0.1405
A(λ = 340 nm) (50 μM, DARK, 11.5 min): 0.1417
A(λ = 340 nm) (50 μM, DARK, 12.0 min): 0.1402
A(λ = 340 nm) (50 μM, DARK, […]): 0.0305
tubulin polymerisation inhibition (390 nm irradiation): very strongly inhibited
tubulin polymerisation inhibition (in the dark): not inhibited
